These results are taken from patent publication US5965539A, “Inhibitors of prenyl transferases” (Univeristy of Pittsburgh, priority 1996, dated 1999).

The subject of one assay is Ras processing. In words: Ras processing assay in EJ3 / Ras transformed 3T3 cells (FIG. 16A). In kind it is cell-based. Here is the method:
EJ3 cells were treated with peptidomimetics or vehicle for 20-24 h. Cells were lysed in lysis buffer (10 mM Na2 HPO4, pH 7.25, 150 mM NaCl, 0.1% sodium dodecyl sulfate, 1% Triton X-100, 12 mM sodium deoxycholate, 1 mM NaF, 0.2% NaN3, 2 mM PMSF, 25 μg/ml leupeptin) and the lysates were cleared by spinning at 13,000 rpm for 15 minutes. Ras protein was immunoprecipitated overnight at 4° C. with 50 μg of anti-Ras antibody (Y13-259; hybridoma from ATCC, Rockville, Md.) along with 30 μl Protein A-agarose goat anti-rat IgG complex (oncogene Science, Uniondale, N.Y.). Immunoprecipitates were washed 4 times with lysis buffer and the bound proteins were released by heating for 5 minutes in 40 μl SDS-PAGE sample buffer and subsequently electrophoresed on a 12.5% SDS-PAGE.

For a further assay, the system named is H-Ras processing. In words: Ras processing assay in H-RasF cells (NIH 3T3 transformed with oncogenic H-Ras-CVLS), immunoblot. In kind it is cell-based. As to conditions: whole cells; read-out: H-Ras processing IC50. On the procedure:
H-RasF cells (45) were seeded on day 0 in 100 mm Dishes (costar) in Dulbecco's modified Eagles medium (GIBCO) and allowed to grow to 40-60% confluency. […] On day 3, cells were washed one time with ice cold PBS and were collected and lysed by incubation for 30-60 min on ice in lysis buffer (41). Lysates were cleared (14,000 rpm, 4° C., 15 min) and supernatants collected. Equal amounts of lysate were separated on a 12.5% SDS-PAGE, transfered to nitrocellulose, and a western blot performed using a anti-Ras antibody (Y13-238, ATCC) or anti-Rap1A antibody (Santa Cruz Biotechnology, Santa Cruz, Calif.). Antibody reactions were visualized using peroxidase-conjugated goat anti-rat IgG for Y13-238 and peroxidase-conjugated goat anti-rabbit IgG for Rap1A and an enhanced chemiluminescence detection system (ECL; Amersham Corp.)
H-Ras cells (45) and K-Ras4B Cells (32) were kind gifts from Dr. Channing Der and Dr. Adrienne Cox (University of North Carolina, Chapel Hill). Means of obtaining these cell lines will be easily recognized by the skilled practitioner. Cells were seeded on day 0 in 100 mm dishes in Dulbecco's modified Eagles medium supplemented with 10% calf serum and 1% penicillin-streptomycin. […] On day 3, cells were washed and lysed in lysis buffer containing 50 mM HEPES, pH 7.5, 10 mM NaCl, 1% TX-100, 10% glycerol, 5 mM MgCl2, 1 mM EGTA, 25 μg/ml leupeptin, 2 mM PMSF, 2 mM Na3 VO4, 1 mg/ml soybean trypsin inhibitor, 10 μg/ml aprotinin, 6.4 mg/ml Sigma-104® phosphatase substrate. Lysates were cleared (14,000 rpm, 4° C., 15 min) and equal amounts of protein were separated on a 12.5% SDS-PAGE, transferred to nitrocellulose, and immunoblotted using an anti-Ras antibody (Y13-259, ATCC) or an anti-RapIA antibody (SC-65, Santa Cruz Biotechnology, Santa Cruz, Calif.). Antibody reactions were visualized using either peroxidase-conjugated goat anti-rat 1 gG (for Y13-259), or peroxidase-conjugated goat anti-rabbit 1 gG (for Rap1A) and an enhanced chemiluminescence detection (ECL, Amersham Corp.), as described previously (41).

Assay [1] concerns the target T1, FTase (Homo sapiens, UniProt P49356).
T1 construct: FTase and GGTase I activities from 60,000×g supernatants of human Burkitt lymphoma (Daudi) cells; endogenous in cells; host or cells: human Burkitt lymphoma (Daudi) cells, 60,000xg supernatant (partially purified)
In words: FTase activity assay: transfer of [3H]farnesyl from FPP to recombinant H-Ras-CVLS, Daudi 60,000xg supernatant. Format: biochemical. As to conditions: for GG/F: ratio GGTase I IC50 / FTase IC50; for IC50: read-out: FTase IC50; for Selectivity: FTase over GGTase I. On the procedure:
FTase and GGTase I activities from 60,000×g supernatants of human Burkitt lymphoma (Daudi) cells (ATCC, Rockville, Md., USA) were assayed as described previously for FTase (41). Briefly, 100 μg of the supernatant was incubated in 50 mM Tris, pH 7.5, 50 μM ZnCl2, 20 mM KCl and 1 mM dithiothreitol (DTT).
Human Burkitt lymphoma (Daudi) cells (ATCC, Rockville, Md.) were grown in suspension in RPMI 1640 medium containing 10% fetal bovine serum (FBS) and 1% Pen-Strep in a humidified 10% CO2 incubator at 37° C. The cells were harvested and sonicated in 50 mM Tris, pH 7.5, 1 mM EDTA, 1 mM EGTA, 25 μg/ml leupeptin, 1 mM phenylmethylsulfonyl fluoride. Homogenates were then spun at 12,000×g and the resulting supernatant further spun at 60,000×g. The supernatant was assayed for both FTase and GGTase I. Briefly, 100 μg of the supernatants was incubated in 50 mM Tris, pH 7.5, 50 μM ZnCl2, 20 mM KCl, 3 mM MgCl2 and 1 mM DTT. […] FPP (625 nM; 16.3 Ci/mmol). For GGTase assays, the reaction was also incubated for 30 minutes at 37° C. but with recombinant H-Ras-CVLL (5 μM) and [^3 H] GGPP (525 nM; 19.0 Ci/mmol). The reaction was stopped and passed through glass fiber filters to separate free and incorporated label. For inhibition studies, the peptidomimetics were premixed with FTase or GGTase I prior to adding the remainder of the reaction mixture. […] Recombinant H-Ras-CVLL was prepared from bacteria (32).
FTase and GGTase I activities from 60,000×g supernatants of human Burkitt lymphoma (Daudi) cells (ATCC, Rockville, Md.) were assayed exactly as described previously for FTase (41).

A further assay deals with T2, GGTase I (Homo sapiens, UniProt P53609).
T2 construct: FTase and GGTase I activities from 60,000×g supernatants of human Burkitt lymphoma (Daudi) cells; endogenous in cells; host or cells: human Burkitt lymphoma (Daudi) cells, 60,000xg supernatant (partially purified)
In words: GGTase I activity assay: transfer of [3H]geranylgeranyl to recombinant H-Ras-CVLL, Daudi 60,000xg supernatant. In kind it is biochemical. On the procedure:
FTase and GGTase I activities from 60,000×g supernatants of human Burkitt lymphoma (Daudi) cells (ATCC, Rockville, Md., USA) were assayed as described previously for FTase (41). Briefly, 100 μg of the supernatant was incubated in 50 mM Tris, pH 7.5, 50 μM ZnCl2, 20 mM KCl and 1 mM dithiothreitol (DTT). The reaction was incubated at […] for 30 min with recombinant Ha-Ras-CVLS (11 μM) and [^3 H]FPP (625 nM; 16.3 Ci/mmol) for FTase, and recombinant Ha-Ras-CVLL (5 μM) and [^3 H]geranylgeranylpyrophosphate (525 nM; 19.0 Ci/mmol) for GGTase I. The peptidomimetics were mixed with FTase and GGTase before adding to the reaction mixture.
Human Burkitt lymphoma (Daudi) cells (ATCC, Rockville, Md.) were grown in suspension in RPMI 1640 medium containing 10% fetal bovine serum (FBS) and 1% Pen-Strep in a humidified 10% CO2 incubator at 37° C. The cells were harvested and sonicated in 50 mM Tris, pH 7.5, 1 mM EDTA, 1 mM EGTA, 25 μg/ml leupeptin, 1 mM phenylmethylsulfonyl fluoride. Homogenates were then spun at 12,000×g and the resulting supernatant further spun at 60,000×g. The supernatant was assayed for both FTase and GGTase I. Briefly, 100 μg of the supernatants was incubated in 50 mM Tris, pH 7.5, 50 μM ZnCl2, 20 mM KCl, 3 mM MgCl2 and 1 mM DTT. For FTase assays, the reaction was incubated at 37° C. for 30 minutes with recombinant H-Ras-CVLS (11 μM) and [^3 H] FPP (625 nM; 16.3 Ci/mmol). For GGTase assays, the reaction was also incubated for 30 minutes at 37° C. but with recombinant H-Ras-CVLL (5 μM) and [^3 H] GGPP (525 nM; 19.0 Ci/mmol). The reaction was stopped and passed through glass fiber filters to separate free and incorporated label. For inhibition studies, the peptidomimetics were premixed with FTase or GGTase I prior to adding the remainder of the reaction mixture. Recombinant H-Ras-CVLS was prepared as described previously (26) from bacteria (31). Recombinant H-Ras-CVLL was prepared from bacteria (32).
FTase and GGTase I activities from 60,000×g supernatants of human Burkitt lymphoma (Daudi) cells (ATCC, Rockville, Md.) were assayed exactly as described previously for FTase (41). Inhibition studies were performed by determining the ability of Ras CAAX peptidomimetics to inhibit the transfer of [^3 H]-farnesyl and [^3 H]-geranylgeranyl from [^3 H]FPP and [^3 H]GGPP to H-ras-CVLS and H-Ras-CVLL, respectively (41).

Assay [2] concerns the target T1, FTase. In words: Peptidomimetics farnesylation assay (silica gel TLC). In kind it is biochemical. As to conditions: Table 4; substrate for farnesylation, TLC. On the procedure: The ability of human Burkitt lymphoma (Daudi) FTase to farnesylate peptides and peptidomimetics was determined as described previously (34, 35). Briefly, 25 μl of reaction mixture containing 50 μg of 60,000×g supernatants and 20 μM peptidomimetic in 50 mM Tris, pH 7.5, 50 μM ZnCl2, 20 mM KCl, 3 mM MgCl2, 1 mM DTT and 0.2% octylβ-D-glucoside was incubated for 30 minutes at 37° C., then spotted onto silica gel G TLC sheets (20×20 cm, Brinkmann Instruments), and developed with n-propanol/5 N ammonium hydroxide/water (6:1:1). The dried sheets were sprayed with En^3 Hance (DuPont NEN) and exposed to x-ray film for detection of [^3 H] farnesylated products.

A further assay deals with Rap1A processing. In words: Rap1A processing assay in EJ3 / Ras transformed 3T3 cells (FIG. 16B). In kind it is cell-based. On the procedure: For Rap1A processing assays, 50 μg of cell lysates were electrophoresed as described above for Ras processing and transferred to nitrocellulose. These membranes were then blocked with 5% milk in Tris-buffered saline, pH 8.0, containing 0.5% Tween-20 and probed with anti-Rap1A (1 μg/ml in 5% milk/TBS-T; Santa Cruz Biotechnology, Santa Cruz, Calif.). Antibody reactions were visualized using peroxidase-conjugated goat anti-rabbit IgG (Oncogene) and ECL chemiluminescence as described above.

[3] abbreviates: Table 1, read-out: GGTase I IC50.
[4] abbreviates: Table 4, read-out: GGTase-I IC50.

Read-outs that look alike come from different tables or passages of the source.

T2 sequence (P53609 whole entry): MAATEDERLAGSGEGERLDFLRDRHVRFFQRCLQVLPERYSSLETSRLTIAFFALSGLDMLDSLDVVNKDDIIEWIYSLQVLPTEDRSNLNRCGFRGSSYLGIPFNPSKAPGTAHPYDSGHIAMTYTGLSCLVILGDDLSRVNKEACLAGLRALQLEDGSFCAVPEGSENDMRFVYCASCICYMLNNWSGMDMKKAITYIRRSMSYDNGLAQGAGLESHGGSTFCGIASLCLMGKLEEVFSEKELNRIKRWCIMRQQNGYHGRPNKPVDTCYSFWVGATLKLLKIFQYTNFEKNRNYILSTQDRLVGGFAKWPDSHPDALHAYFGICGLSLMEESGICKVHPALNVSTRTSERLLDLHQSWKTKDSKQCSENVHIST
T1 sequence (P49356 whole entry): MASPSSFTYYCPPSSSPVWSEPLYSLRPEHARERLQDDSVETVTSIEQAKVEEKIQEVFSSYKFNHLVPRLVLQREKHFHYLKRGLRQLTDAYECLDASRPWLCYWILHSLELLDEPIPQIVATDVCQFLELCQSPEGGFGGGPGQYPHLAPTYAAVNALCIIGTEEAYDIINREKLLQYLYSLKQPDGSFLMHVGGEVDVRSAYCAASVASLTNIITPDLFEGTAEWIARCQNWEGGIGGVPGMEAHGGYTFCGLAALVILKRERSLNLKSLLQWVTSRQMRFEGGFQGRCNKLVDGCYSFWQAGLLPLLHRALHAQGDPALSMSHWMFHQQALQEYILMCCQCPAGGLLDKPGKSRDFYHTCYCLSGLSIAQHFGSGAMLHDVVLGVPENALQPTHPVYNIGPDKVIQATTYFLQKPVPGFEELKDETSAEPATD

Turning to `CSCC[C@H](NC(=O)c1ccc(NC[C@@H](N)CS)cc1)C(=O)O` [FTI-249, 4-N-[2(R)-Amino-3-mercaptopropyl]aminobenzoyl methionine], the “inhibition of Ras processing” value in the assay on Ras processing (200 μM) and in the assay on Ras processing (FIG. 16A) was “did not inhibit Ras processing” in each case. For the same compound, the IC50 in the assay with H-Ras processing was found to be 100 µM; at FTase [1] (Table 1), 0.272 µM; on FTase [1] (Table 4) it was 0.3 µM; on FTase [1], 0.3 µM; on GGTase I (setting [3]) it was 3.97 µM; at GGTase I (setting [4]), 4.4 µM. Besides, the “selectivity for FTase over GGTase I” value on FTase [1] is reported as 15 fold. Besides, the GG/F on FTase [1] (Table 1) amounted to 15. Also, the Selectivity at FTase [1] (Table 4) was found to be 15.
As to `COC(=O)[C@H](CCSC)NC(=O)c1ccc(NC[C@@H](N)CS)cc1` [FTI-254, 4-N-[2(R)-Amino-3-mercaptopropyl]aminobenzoyl methionine methyl ester], the “inhibition of Ras processing” value in the assay with Ras processing (200 μM) is reported as “inhibited FTase”. Besides, at FTase [1] (Table 1), the GG/F turned out to be 19 and the IC50 was determined as 1 µM. The IC50 at GGTase I (setting [3]) came out at 19 µM.
In the case of `COC(=O)c1cccc(-c2ccc(NC[C@@H](N)CS)cc2)c1` [FTI-259, 4-N-[2(R)-Amino-3-mercaptopropyl]amino-3'-methoxycarbonylbiphenyl], on FTase [2], the Substrate result is reported as “no”. Moreover, on FTase [1] (Table 4), the Selectivity is on record as 109 and the IC50 was determined as 0.917 µM. Also, the IC50 at GGTase I (setting [4]) was above 100 µM.
As to `Cc1cccc(-c2ccc(NC[C@@H](N)CS)cc2)c1` [FTI-263, 4-N-[2(R)-Amino-3-mercaptopropyl]amino-3'-methylbiphenyl], in the assay on Rap1A processing, the “inhibition of Rap1A processing” value is given as “did not inhibit Rap1A processing”. Moreover, the Substrate entry on FTase [2] is “no”. Further, at FTase [1] (Table 4), the Selectivity is 141 and the IC50 worked out at 0.71 µM. In addition, the IC50 at GGTase I (setting [4]) was above 100 µM.
With `N[C@@H](CS)CNc1ccc(-c2ccccc2)cc1` [FTI-268, 4-N-[2(R)Amino-3-Mercaptopropyl]aminobiphenyl], at FTase [2], the Substrate entry is “no”. For the same compound, at FTase [1] (Table 4), the Selectivity came to 93 and the IC50 was 1.07 µM. In addition, on GGTase I (setting [4]), the IC50 is above 100 µM.
On to `N[C@@H](CS)CNc1ccc(-c2ccc(C(=O)O)cc2)cc1` [FTI-271, 4-N-[2(R)-Amino-3-mercaptopropyl]amino-4'-carboxybiphenyl], for which the “inhibition of Rap1A processing” value in the assay on Rap1A processing is “did not inhibit Rap1A processing”. The Substrate entry on FTase [2] was “no”. On GGTase I (setting [4]), the 50% inhibitory concentration (IC50) was above 100 µM.
Regarding `CC[C@H](C)C(=O)O[C@H]1C[C@@H](C)C=C2C=C[C@H](C)[C@H](CC[C@@H]3C[C@@H](O)CC(=O)O3)[C@H]21` [lovastatin, reference compound], in the assay on Ras processing (FIG. 16A), the “inhibition of Ras processing” value is “inhibited Ras processing”. Further, the “inhibition of Rap1A processing” value in the assay with Rap1A processing was “inhibited the processing of Rap1A”.

What is called IC50 is the point on the concentration scale where inhibition reaches its midpoint.
